# Earlier results as cited in US20110195912A1, “Oligomer-Protease Inhibitor Conjugates” (Nektar Therapeutics, priority 2008, published 2011).
# Read-outs that look alike come from different tables or passages of the source.
# Tests used:
# HCV = conditions: monotherapy, twice daily doses for 14 days
# [1] = monkey; twice daily oral dosing for seven days
# [2] = rat; twice daily oral dosing for seven days
# HCV genotype 1 [3] = conditions: 200 or 400 mg thrice daily, 14 days; non-responder patients with HCV genotype 1
# HCV genotype 1 [4] = conditions: 100-400 mg twice daily; patients with HCV genotype 1 that had failed pegIFN-α 2a therapy
liver trough concentrations following the last dose [1],liver trough concentrations following the last dose [2],Structure (SMILES),viral RNA levels (HCV),efficacy in combination with pegIFN-α2a (HCV genotype 1 [3]),antiviral activity as a monotherapy (HCV genotype 1 [4])
in excess of in vitro EC90 values,in excess of in vitro EC90 values,CC(C)(C)OC(=O)N[C@H]1CCCCC/C=C\[C@@H]2C[C@@]2(C(=O)NS(=O)(=O)C2CC2)NC(=O)[C@@H]2C[C@@H](OC(=O)N3Cc4cccc(F)c4C3)CN2C1=O [ITMN-191],rapid reduction in viral RNA levels,–,–
–,–,CC(C)(C)NC(=O)N[C@H](C(=O)N1CC2[C@@H]([C@H]1C(=O)NC(CC1CCC1)C(=O)C(N)=O)C2(C)C)C(C)(C)C (some centres unmarked) [Boceprevir],–,efficacious,demonstrated antiviral activity
